# Source: patent US20140227408A1, “MEAT TREATMENT AND PRESERVATION METHOD” (RED MEAT AS, priority 2011, published 2014)
# Assays:
# Set-up in all cases: species or system cattle
# [1] = Colour L*, a*, b* of treated ground beef, low oxygen packaging (Example 5); conditions: low oxygen packaging
# Description: Beef M. semimembranosus (M.S.) and beef fat tissue were collected four days post mortem (Fatland A/S, Oslo, Norway). The packaging day is defined as day zero, however, the tissues were 4 days post mortem on packing day. A piece of meat from proximal end was cut from each muscle in order to measure oxygen consumption, pH and surface colour. Fat tissue from pigs fed rapeseed and vitamin E to enhance the content of polyunsaturated fatty acids were from HKScan (Ruokatalo, Finland). The fat tissue was transported vacuum-packaged and frozen. Samples of minced fat tissue were removed for fatty acid analysis.
# The beef muscles were cut into pieces of approximately 10×5 cm and mixed to 14% w/w fat by using the fat tissues. Beef fat and pork fat tissues were ground twice with either raw beef from four young (16-19 months) or four old (46-81 months) cattle. […] The ground meat was blended manually with solutions (all at pH 5.8) with various TCA and glycolytic ingredients (see below).
# To maintain pH at 5.8 the solutions were prepared by mixing the acid form and the corresponding sodium salt of these chemicals.
# […] The solution was quickly and properly stirred into the minced meat and the blended system was subsequently packaged. […] Two reference samples with 40 ml of distilled water added to 360 gram of ground beef were also prepared each of the four production day, i.e. altogether 8 references were prepared. The samples were packaged in either low or high oxygen atmosphere.
# The ground beef was packaged in black amorphous polyethylene terephthalate (APET) trays that were sealed with ethylene vinyl alcohol (EVOH) top films. The trays and films (Wipak Multipet and Wipak Biaxer, both Wipak, Nastola, Finland) had oxygen transmission rates of 7 and 5 cm^3/m^2/24 h at 23° C. at 50% relative humidity. Packaging was carried out within 1 hour after grinding. The samples were stored in darkness at 4° C. for 8 days in a high-oxygen atmosphere (75% oxygen and 25% CO2) and for 13 days in a low-oxygen atmosphere (60% CO2 and 40% N2). These food grade gas mixtures were supplied by AGA (Oslo, Norway).
# The colour of the ground meat samples was measured with a Konica Minolta Chroma Meter CR 410 (Konica Minolta Sensing Inc., Osaka, Japan) using the glass light projection tube CR A 33e with wide illumination area (61 mm) and illuminant D65. The instrument was calibrated each day by measuring a white ceramic plate (L*=97.9; a*=0.05; b*=2). All colour measurements were made with 3 replicates (CIE, 1976, “Recommendations on uniform colour spaces-colour difference equations” (Vol. Supplement No. 2 to CIE). Paris, France: Commission Internationale de l'Eclairage).
# The colour of the samples packaged in high O2 was measured after 0, 1, 3, 6 and 8, days of storage from packaging day, while low O2 samples were measured at 0 to 13 days of storage using Minolta and reflectance measurements.
# The experimental design is visualized in FIG. 5. A 2^2 design (animal age and type of fat tissue) was split over 4 experimental days (FIG. 5, and Tables 10 and 11). To each corner of this 2^2 design was added a 3 component (succinate, pyruvate and glutamate-malate additions; 0, 50 and 100%) simplex lattice mixture design with 2 additional centre experiments as shown in FIG. 5.
# [2] = Colour (b*, a*) of minced beef mixed with test brines, stored in low-oxygen MAP (Examples 1-2); conditions: for b*: low oxygen (MAP), day 6 of storage, amount 1 = 0.1 mol per kg meat
# Procedure: (§1) Beef fat and pork fat (high degree of unsaturation) were used with raw semimembranosus muscle from young and old cattle. Beef from the hind leg was removed, weighed, chopped, mixed with fat (14% by weight), and the various test compounds were added to the minced meat. The mixtures were packed into boxes and sealed with plastic sheeting. Packing was done with MAP to yield a low-oxygen atmosphere (60% CO2 and 40% N2) and also under a high-oxygen atmosphere (75% oxygen and 25% CO2). The samples were stored in darkness at 4° C. from 0 to 8 days for the high-oxygen atmosphere and 0 to 13 days for the MAP samples. A Cheers Packaging Machine (Promens) was used for packaging of samples. Triplicate reference samples with only 40 ml of distilled water mixed and packaged as described above were evaluated at days 6 and 8 for the high-oxygen environment and at days 6, 8, 10 and 13 for the MAP environment.
# (§2) Samples of test compounds were prepared with succinate, glutamate, malate, pyruvate and citrate in different combinations, either as single chemicals or as mixtures. The acid and conjugate base of each active component was added in the appropriate ratio to provide the solutions (brines) with a pH of 5.8. As will be clear from the foregoing description, the “succinate” used in this experiment was a combination of succinic acid and sodium succinate. The “glutamate”, “malate”, etc. were used equivalently.
# (§3) Meat and fat was cut into small pieces and minced (3 mm holes). 40 g of brine was added to 360 g mince and packed in the plastic packing.
# (§4) Several variables were included in the design of the experiment, using a 2^3 factorial design. […] Malate and glutamate were considered together in the design and analysis, but their ratio was varied in the experiments from pure malate to pure glutamate.
# (§5) Colour changes in the samples were measured with a FOSS NIRSystems™ 6500 analyser and a Konica Minolta Chroma meter CR 410 (Konica Minolta Sensing Inc., Osaka, Japan). Colour was measured using the parameters L*, a* and b* at 0, 1, 3, 6 and 8 days for samples stored in 75% oxygen. Colour changes of the samples packaged in MAP were measured at 0, 1, 3, 6, 8, 10 and 13 days of storage time.
# Results from the experiments carried out on the various meat and fat samples are shown below in Tables 1 to 8. Values given for the amount of active agents in Tables 1 to 8 correspond to the molar proportion of the given agent within the brine/meat mixture, where a value of 1 corresponds to 0.1 moles active agent per kg of meat, a value of 0.5 corresponds to 0.05 mol/kg, etc. […] The b* values, which are considered to be most representative of the colour changes in the meat being tested, are shown. All results correspond to measurements made on day 6 of storage
# The data from the experiment described in Example 1 were analyzed using an ANOVA model with all main effect and second and higher order effects according to the method described in Langsrud, Ø. (“50-50 Multivariate Analysis of Variance for Collinear Responses” The Statistician (2002) 51, pp. 305-317). […] The mixture design was fractional.
# [3] = Colour (b*) of minced beef mixed with test brines, stored in high-oxygen atmosphere (Example 1); conditions: day 6 of storage, amount 1 = 0.1 mol per kg meat
# Procedure: as §1, §2, §3, §4, §5
# Results from the experiments carried out on the various meat and fat samples are shown below in Tables 1 to 8. Values given for the amount of active agents in Tables 1 to 8 correspond to the molar proportion of the given agent within the brine/meat mixture, where a value of 1 corresponds to 0.1 moles active agent per kg of meat, a value of 0.5 corresponds to 0.05 mol/kg, etc. […]
# The data from the experiment described in Example 1 were analyzed using an ANOVA model with all main effect and second and higher order effects according to the method described in Langsrud, Ø. […]
# [4] = old beef muscle mixed with beef fat
# [5] = old beef muscle mixed with pork fat
# [6] = young beef muscle mixed with pork fat
Compound,"effect on redness (a*), in words [1]","a* ([2]; low-oxygen environment, zero citrate, after 6 days storage, relative amounts of succinate, pyruvate, glutamate + malate)","b* [2, 4]","b* [2, 5]","b* ([2]; young beef muscle mixed with beef fat, 4° C.)","b* [2, 6]","b* [3, 4]","b* [3, 5]",b* ([3]; young beef muscle mixed with beef fat),"b* [3, 6]"
N[C@@H](CCC(=O)O)C(=O)O [glutamate],nominally higher a* values,–,–,–,–,–,–,–,–,–
"O=C(O)CCC(=O)O [succinate 1.00, succinate]",–,9.81,1.48,0.98,1.07,1.34,3.45,3.77,4.01,4.70
